# According to PMC9270327 (Communications Biology, 2022):
# Like-named read-outs stand apart in the source and are kept apart here.
# Legend:
# [1] = biological target: T1, recombinant human matriptase (Homo sapiens, UniProt Q9Y5Y6); assay: Enzyme inhibition assay with purified matriptase (Ki, dose-response); assay type: biochemical; conditions: for matriptase activity, Mean (Fig. 2b): normalized, 0 nM = 100
# T1 construct: purchased R&D Systems (Minneapolis, MN, USA)
# T1 sequence (Q9Y5Y6 1-855): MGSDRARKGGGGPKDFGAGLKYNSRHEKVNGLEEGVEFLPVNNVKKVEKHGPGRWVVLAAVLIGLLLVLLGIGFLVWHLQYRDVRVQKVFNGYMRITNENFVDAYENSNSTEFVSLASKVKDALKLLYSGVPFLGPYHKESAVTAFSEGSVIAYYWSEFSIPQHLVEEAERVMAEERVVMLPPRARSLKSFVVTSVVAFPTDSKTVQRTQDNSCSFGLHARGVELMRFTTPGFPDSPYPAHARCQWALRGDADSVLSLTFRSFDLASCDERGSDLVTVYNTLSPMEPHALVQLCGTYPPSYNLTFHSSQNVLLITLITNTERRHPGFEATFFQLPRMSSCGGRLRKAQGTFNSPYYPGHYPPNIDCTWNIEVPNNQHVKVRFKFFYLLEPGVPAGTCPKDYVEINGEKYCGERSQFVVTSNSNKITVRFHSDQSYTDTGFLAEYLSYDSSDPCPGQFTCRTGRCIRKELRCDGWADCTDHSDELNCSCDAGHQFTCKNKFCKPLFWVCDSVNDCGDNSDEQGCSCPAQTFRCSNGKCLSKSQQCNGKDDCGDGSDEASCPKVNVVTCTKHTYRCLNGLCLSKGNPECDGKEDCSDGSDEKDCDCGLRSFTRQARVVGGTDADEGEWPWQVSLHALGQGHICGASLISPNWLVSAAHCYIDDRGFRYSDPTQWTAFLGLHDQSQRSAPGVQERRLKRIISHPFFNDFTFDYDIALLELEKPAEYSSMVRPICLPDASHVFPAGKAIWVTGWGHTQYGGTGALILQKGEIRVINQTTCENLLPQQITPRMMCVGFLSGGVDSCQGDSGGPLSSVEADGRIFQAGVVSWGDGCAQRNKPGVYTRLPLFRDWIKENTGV
# [2] = biological target: T2, recombinant human thrombin (Homo sapiens, UniProt P00734); assay: Enzyme inhibition assay with purified thrombin (Ki, dose-response); assay type: biochemical; conditions: for thrombin activity, Mean (Fig. 2c): normalized, 0 nM = 100
# T2 construct: purchased R&D Systems (Minneapolis, MN, USA)
# Source text: Recombinant human TMPRSS2 was purchased from Creative BioMart (New York, USA) or LSBio (Seattle, USA), factor Xa was obtained from Bio-Techne GmbH (Wiesbaden, Germany). Recombinant human thrombin and matriptase protein were purchased from R&D Systems (Minneapolis, MN, USA).
# [3] = biological target: T3, TMPRSS2 expressed in HEK293T cells (Homo sapiens, UniProt O15393); assay: Inhibition of cellular TMPRSS2 activity on HEK293T cells transiently expressing TMPRSS2; assay type: cell-based; conditions: 2 h; for normalized fluorescence intensity, HEK293T TMPRSS2, Mean (Fig. 4b): corrected for mock-transfected cells
# T3 construct: host or cells: HEK293T (ATCC)
# T3 sequence (O15393 whole entry): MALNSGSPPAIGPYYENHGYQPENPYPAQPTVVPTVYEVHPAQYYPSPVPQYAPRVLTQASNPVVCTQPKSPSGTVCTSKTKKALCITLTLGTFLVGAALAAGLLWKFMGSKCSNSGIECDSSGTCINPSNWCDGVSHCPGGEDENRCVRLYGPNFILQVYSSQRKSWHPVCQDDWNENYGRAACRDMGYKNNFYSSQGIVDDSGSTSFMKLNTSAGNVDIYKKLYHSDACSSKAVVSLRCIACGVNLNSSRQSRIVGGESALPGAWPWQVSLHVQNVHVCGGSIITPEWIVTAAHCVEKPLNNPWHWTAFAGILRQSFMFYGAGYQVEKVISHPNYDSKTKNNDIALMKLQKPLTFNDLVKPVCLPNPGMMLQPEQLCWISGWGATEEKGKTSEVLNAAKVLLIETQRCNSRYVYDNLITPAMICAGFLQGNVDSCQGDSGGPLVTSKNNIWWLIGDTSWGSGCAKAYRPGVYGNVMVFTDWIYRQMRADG
# Description: In total, 10,000 Caco-2 cells (ATCC) in 100 µL EMEM medium supplemented with 10% FBS, 100 U/mL penicillin, […] streptomycin, and 2 mM glutamine (all Invitrogen, Germany) were seeded per well in a 96-well plate and incubated at 37 °C for 4 days until full confluency of the cells. The cells were washed two times with PBS and EMEM medium without FBS was added. […] The fluorescence intensity was measured as described above. In all, 20,000 HEK293T cells (ATCC) were seeded in 100 µL DMEM supplemented with 10% FBS, 100 U/mL penicillin, […] streptomycin, and 2 mM glutamine. […] […] […] Fluorescence intensity was measured after 2 h at 37 °C as described above.
# [4] = system: lentiviral pseudoparticles carrying SARS-CoV-2 Delta (B.1.617.2) spike, Caco-2 cells; assay type: cell-based; conditions: for SARS-CoV-2 spike driven entry, Mean (0 nM = 100): Fig. 5d
# [5] = system: SARS-CoV-2 Alpha (B.1.1.7), Caco-2 cells; assay type: cell-based; conditions: for SARS-CoV-2 infection, Mean (0 nM = 100): Fig. 6c, VOC Alpha
substance,measurement,setting,value
ace-Arg-Pro-Arg-kbt [Compound 2],"matriptase activity, Mean (Fig. 2b)",[1]; 0.1 nM,101.198
same,"matriptase activity, Mean (Fig. 2b)",[1]; 0.2 nM,106.445
same,"matriptase activity, Mean (Fig. 2b)",[1]; 1 nM,70.3881
same,"matriptase activity, Mean (Fig. 2b)",[1]; 10 nM,45.9032
same,"matriptase activity, Mean (Fig. 2b)",[1]; 100 nM,8.529
same,"matriptase activity, Mean (Fig. 2b)",[1]; 1000 nM,0.7667
same,"matriptase activity, Mean (Fig. 2b)",[1]; 50000 nM,-0.2875
same,"matriptase activity, Mean (Fig. 2b)",[1]; 500000 nM,-0.6229
same,Ki,"[1]; 30 min preincubation, substrate Boc-Gln-Ala-Arg-AMC",3.3 nM
same,Selectivity index Matriptase,[1]; quotient Ki matriptase / Ki TMPRSS2,0.9
same,"thrombin activity, Mean (Fig. 2c)",[2]; 0.02 nM,98.5684
same,"thrombin activity, Mean (Fig. 2c)",[2]; 0.04 nM,95.6033
same,"thrombin activity, Mean (Fig. 2c)",[2]; 0.2 nM,102.761
same,"thrombin activity, Mean (Fig. 2c)",[2]; 2 nM,99.4379
same,"thrombin activity, Mean (Fig. 2c)",[2]; 20 nM,100.358
same,"thrombin activity, Mean (Fig. 2c)",[2]; 200 nM,86.605
same,"thrombin activity, Mean (Fig. 2c)",[2]; 10000 nM,11.4518
same,"thrombin activity, Mean (Fig. 2c)",[2]; 100000 nM,-13.8043
same,Ki,"[2]; 30 min preincubation, substrate D-Phe-Homopro-Arg-pNA",599 nM
same,Selectivity index Thrombin,[2]; quotient Ki thrombin / Ki TMPRSS2,158
same,"normalized fluorescence intensity, HEK293T TMPRSS2, Mean (Fig. 4b)",[3]; 0.5 nM,60.175
same,"normalized fluorescence intensity, HEK293T TMPRSS2, Mean (Fig. 4b)",[3]; 5 nM,47.265
same,"normalized fluorescence intensity, HEK293T TMPRSS2, Mean (Fig. 4b)",[3]; 50 nM,34.28
same,"normalized fluorescence intensity, HEK293T TMPRSS2, Mean (Fig. 4b)",[3]; 500 nM,7.97
same,"normalized fluorescence intensity, HEK293T TMPRSS2, Mean (Fig. 4b)",[3]; 5000 nM,0.76
same,"normalized fluorescence intensity, HEK293T TMPRSS2, Mean (Fig. 4b)",[3]; 50000 nM,-5.7
same,IC50,[3]; corrected for mock-transfected HEK293T cells,3.5 nM
same,IC50,"[4]; Caco-2 cells, luciferase 2 days post transduction, read-out: IC50 pseudotyped lentivirus Delta",627 nM
same,"SARS-CoV-2 spike driven entry, Mean (0 nM = 100)",[4]; compound 3.2 nM,94.6384
same,"SARS-CoV-2 spike driven entry, Mean (0 nM = 100)",[4]; compound 16 nM,93.9983
same,"SARS-CoV-2 spike driven entry, Mean (0 nM = 100)",[4]; compound 80 nM,82.6624
same,"SARS-CoV-2 spike driven entry, Mean (0 nM = 100)",[4]; compound 400 nM,60.9224
same,"SARS-CoV-2 spike driven entry, Mean (0 nM = 100)",[4]; compound 2000 nM,29.6704
same,"SARS-CoV-2 spike driven entry, Mean (0 nM = 100)",[4]; compound 10000 nM,4.245
same,"SARS-CoV-2 spike driven entry, Mean (0 nM = 100)",[4]; compound 50000 nM,0.86
same,"SARS-CoV-2 infection, Mean (0 nM = 100)",[5]; compound 32 nM,106.285
same,"SARS-CoV-2 infection, Mean (0 nM = 100)",[5]; compound 160 nM,107.747
same,"SARS-CoV-2 infection, Mean (0 nM = 100)",[5]; compound 800 nM,109.671
same,"SARS-CoV-2 infection, Mean (0 nM = 100)",[5]; compound 4000 nM,112.829
same,"SARS-CoV-2 infection, Mean (0 nM = 100)",[5]; compound 20000 nM,1.3092
same,"SARS-CoV-2 infection, Mean (0 nM = 100)",[5]; compound 100000 nM,-2.734
same,IC50,[5]; read-out: IC50 SARS-CoV-2 Alpha,~20 µM
